The test system of assay [1] is E. coli UFR18. The experiment in a line: MIC of ceftazidime alone and in combination with compounds (synergy), broth microdilution. The format is cell-based. Conditions: MIC of ceftazidime with compound fixed at 4 μg/mL; strain UFR18 (CTX-M-15, OXA-204). On the technique in general: Broth dilution looks for growth in wells or tubes with falling amounts of substance.
Assay [2] deals with K. pneumoniae UFR68. Format: cell-based. Conditions: MIC of ceftazidime with compound fixed at 4 μg/mL; strain UFR68 (TEM-1, SHV-11, CTX-M-15, KPC-3).
Assay [3] has as its system E. coli 131119. The experiment in a line: MIC of ceftazidime alone and in combination with compounds (synergy), broth microdilution. Particulars: MIC of ceftazidime with compound fixed at 4 μg/mL; strain 131119 (TEM-1, OXA-48). The format is cell-based. As for the experimental part: (§1) Compounds of the present invention were assessed against genotyped bacterial strains alone or in combination with the β-lactam ceftazidime (CAZ). […] Briefly, compounds alone according to the invention were prepared in DMSO and spotted (2 μL each) on sterile polystyrene plates (Corning, 3788). […] Log phase bacterial suspensions were adjusted to a final density of 5×10^5 cfu/mL in cation-adjusted Mueller-Hinton broth (Becton-Dickinson) and added to each well (98 μL). Microplates were incubated for 16-20 h at 35° C. in ambient air. The MIC of the compounds was defined as the lowest concentration of said compounds that prevented bacterial growth as read by visual inspection.

Assay [4] deals with K. pneumoniae UFR77. The description is as above. The format is cell-based. Particulars: MIC of ceftazidime with compound fixed at 4 μg/mL; strain UFR77 (CMY-2). How it is done:
as §1

The test system of assay [5] is P. aeruginosa CIP107051. The assay is described as above. Format: cell-based. Particulars: MIC of ceftazidime with compound fixed at 4 μg/mL; strain CIP107051 (TEM-24). As for the experimental part: as §1
Assay [6] has as its system P. aeruginosa CIP105250. Described as above. The format is cell-based. Particulars: MIC of ceftazidime with compound fixed at 4 μg/mL; strain CIP105250 (OXA-15). As for the experimental part: as §1
In assay [7] the test system is E. coli UFR74. The assay is described as above. Conditions: MIC of ceftazidime with compound fixed at 4 μg/mL; strain UFR74 (SHV-1, DHA-1). Format: cell-based. How it is done:
as §1

Assay [8] deals with E. coli RGN238. The description is as above. The format is cell-based. Particulars: MIC of ceftazidime with compound fixed at 4 μg/mL; strain RGN238 (OXA-1). As for the experimental part:
as §1

Assay [9] has as its system K. pneumoniae 6299. The description is as above. The format is cell-based. Conditions: MIC of ceftazidime with compound fixed at 4 μg/mL; strain 6299 (TEM-1, SHV-11, OXA-163). As for the experimental part: as §1
The test system of assay [10] is K. pneumoniae BAA-1898. Described as above. Particulars: MIC of ceftazidime with compound fixed at 4 μg/mL; strain BAA-1898 (TEM-1, SHV-11, SHV-12, KPC-2). Format: cell-based. How it is done:
as §1

Assay [11] deals with T1, OXA-15 (Pseudomonas aeruginosa, UniProt Q51574).
T1 construct: made in house; host or cells: E. coli expression vector
The experiment in a line: biochemical. As for the experimental part:
(§2) Method 1: β-lactamase Inhibitory Activity, Determination of IC50 (Table 1)
(§3) Enzyme activity was monitored by spectrophotometric measurement of nitrocefin (NCF—TOKU-E, N005) hydrolysis at 485 nm, at room temperature and in assay buffer A: 100 mM Phosphate pH7, 2% glycerol and 0.1 mg/mL Bovine serum albumin (Sigma, B4287). Enzymes were cloned in E. coli expression vector, expressed and purified in house using classical procedures. To a transparent polystyrene plate (Corning, 3628) were added in each well 5 μL DMSO or inhibitor dilutions in DMSO and 80 μL enzyme in buffer A. Plates were immediately read at 485 nm in a microplate spectrophotometer (BioTek, PowerWave HT) to enable background subtraction. After 30 min of pre-incubation at room temperature, 15 μL of NCF (200 μM final) were finally added in each well. Final enzyme concentrations were 0.1 nM (TEM-1), 0.075 nM (SHV-1), 0.4 nM (CTX-M-15), 1 nM (KPC-2), 0.2 nM (P99 AmpC), 0.2 nM (CMY-37), 0.4 nM (AmpC P. aeruginosa), 0.2 nM (OXA-1), 1.2 nM (OXA-11), 0.4 nM (OXA-15) and 0.3 nM (OXA-48). After 20 min incubation at room temperature, plates were once again read at 485 nm. Enzyme activity was obtained by subtracting the final signal by the background, and was converted to enzyme inhibition using non inhibited wells. IC50 curves were fitted to a classical Langmuir equilibrium model with Hill slope using XLFIT (IDBS).

In assay [12] the target is T2, AmpC (P99) (Enterobacter cloacae, UniProt P05364).
T2 construct: made in house; host or cells: E. coli expression vector
The experiment in a line: biochemical. How it is done:
as §2, §3

Assay [13] concerns K. pneumoniae 200047. The experiment in a line: MIC of ceftazidime alone and in combination with compounds (synergy), broth microdilution. The format is cell-based. Conditions: MIC of ceftazidime with compound fixed at 4 μg/mL; strain 200047 (TEM-1, SHV-32, CTX-M-15, OXA-1).
Assay [14] relates to P. aeruginosa CIP107051. The experiment in a line: MIC of compounds alone, broth microdilution. The format is cell-based. Conditions: Pseudomonas aeruginosa; strain CIP107051 (TEM-24); read-out: MIC compounds of the invention alone. As for the experimental part:
as §1

The test system of assay [15] is E. coli RGN238. The experiment in a line: MIC of compounds alone, broth microdilution. Conditions: Escherichia coli, RGN238, read-out: MIC compounds of the invention alone. Format: cell-based. How it is done:
as §1

Assay [16] has as its system E. coli UFR61O. The experiment in a line: MIC of ceftazidime alone and in combination with compounds (synergy), broth microdilution. Conditions: MIC of ceftazidime with compound fixed at 4 μg/mL; strain UFR61O (TEM-1, KPC-2). Format: cell-based.
For assay [17], the target named is T3, KPC-2 (Klebsiella pneumoniae, UniProt Q9F663).
T3 construct: made in house; host or cells: E. coli expression vector
The experiment in a line: β-lactamase inhibitory activity, IC50 (nitrocefin hydrolysis). Format: biochemical. How it is done: as §2, §3

Assay [18] concerns the target T4, CTX-M-15 (Escherichia coli, UniProt Q9EXV5).
T4 construct: made in house; host or cells: E. coli expression vector
The description is as above. Format: biochemical. How it is done:
as §2, §3

Assay [19] concerns the target T5, TEM-1 (Escherichia coli, UniProt P62593).
T5 construct: made in house; host or cells: E. coli expression vector
Described as above. The format is biochemical. Conditions: class (A); 30 min pre-incubation; NCF 200 μM. As for the experimental part: as §2, §3

The target in assay [20] is T6, OXA-48 (Klebsiella pneumoniae, UniProt Q6XEC0).
T6 construct: made in house; host or cells: E. coli expression vector
The assay is described as above. The format is biochemical. As for the experimental part:
as §2, §3

Assay [21] deals with T7, OXA-11 (Pseudomonas aeruginosa, UniProt Q06778).
T7 construct: made in house; host or cells: E. coli expression vector
The assay is described as above. Format: biochemical. As for the experimental part:
as §2, §3

The target of assay [22] is T8, SHV-1 (Klebsiella pneumoniae, UniProt P0AD64).
T8 construct: made in house; host or cells: E. coli expression vector
Described as above. The format is biochemical. How it is done: as §2, §3

In assay [23] the target is T9, OXA-1 (Escherichia coli, UniProt P13661).
T9 construct: made in house; host or cells: E. coli expression vector
The assay is described as above. The format is biochemical. As for the experimental part:
as §2, §3

Counter-ions that a name gives are not always drawn.

T2 sequence (P05364 21-381): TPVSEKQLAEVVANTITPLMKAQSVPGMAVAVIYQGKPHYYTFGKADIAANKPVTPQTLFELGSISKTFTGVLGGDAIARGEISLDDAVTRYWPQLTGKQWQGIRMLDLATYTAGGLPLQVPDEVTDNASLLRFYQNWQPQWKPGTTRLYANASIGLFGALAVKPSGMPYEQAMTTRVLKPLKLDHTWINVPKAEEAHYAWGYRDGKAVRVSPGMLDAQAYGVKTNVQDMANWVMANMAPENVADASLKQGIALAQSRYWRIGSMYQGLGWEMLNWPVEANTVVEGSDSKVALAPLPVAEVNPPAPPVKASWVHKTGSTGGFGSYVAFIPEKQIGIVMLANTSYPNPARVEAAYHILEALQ
T7 sequence (Q06778 21-266): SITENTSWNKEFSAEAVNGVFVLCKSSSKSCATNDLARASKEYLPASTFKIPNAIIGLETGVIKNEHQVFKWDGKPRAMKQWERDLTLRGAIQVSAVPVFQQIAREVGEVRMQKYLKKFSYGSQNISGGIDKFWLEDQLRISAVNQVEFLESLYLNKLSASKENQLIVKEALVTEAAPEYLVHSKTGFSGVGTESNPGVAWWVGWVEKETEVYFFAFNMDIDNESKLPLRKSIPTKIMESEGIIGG
T9 sequence (P13661 26-276): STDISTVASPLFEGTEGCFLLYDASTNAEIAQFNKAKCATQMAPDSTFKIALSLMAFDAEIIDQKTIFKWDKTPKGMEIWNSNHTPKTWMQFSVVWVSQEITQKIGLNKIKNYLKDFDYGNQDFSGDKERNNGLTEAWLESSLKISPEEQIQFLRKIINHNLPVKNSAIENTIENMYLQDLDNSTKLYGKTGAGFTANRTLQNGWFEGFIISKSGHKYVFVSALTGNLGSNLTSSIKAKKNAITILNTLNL
T8 sequence (P0AD64 22-286): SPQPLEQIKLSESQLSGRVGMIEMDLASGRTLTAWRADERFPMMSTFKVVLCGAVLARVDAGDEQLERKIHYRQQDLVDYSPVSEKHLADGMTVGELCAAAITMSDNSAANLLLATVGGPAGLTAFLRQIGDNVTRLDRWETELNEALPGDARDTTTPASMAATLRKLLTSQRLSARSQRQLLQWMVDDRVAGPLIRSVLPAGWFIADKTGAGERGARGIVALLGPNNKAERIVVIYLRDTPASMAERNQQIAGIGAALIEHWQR
T4 sequence (Q9EXV5 entry or part of it): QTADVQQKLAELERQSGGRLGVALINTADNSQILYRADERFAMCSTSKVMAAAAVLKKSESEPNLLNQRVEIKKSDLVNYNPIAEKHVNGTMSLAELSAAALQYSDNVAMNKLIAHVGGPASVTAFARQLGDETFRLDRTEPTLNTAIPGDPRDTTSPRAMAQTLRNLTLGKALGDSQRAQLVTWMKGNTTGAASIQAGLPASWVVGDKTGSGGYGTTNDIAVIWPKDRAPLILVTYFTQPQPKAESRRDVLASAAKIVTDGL
T3 sequence (Q9F663 25-293 limits assumed): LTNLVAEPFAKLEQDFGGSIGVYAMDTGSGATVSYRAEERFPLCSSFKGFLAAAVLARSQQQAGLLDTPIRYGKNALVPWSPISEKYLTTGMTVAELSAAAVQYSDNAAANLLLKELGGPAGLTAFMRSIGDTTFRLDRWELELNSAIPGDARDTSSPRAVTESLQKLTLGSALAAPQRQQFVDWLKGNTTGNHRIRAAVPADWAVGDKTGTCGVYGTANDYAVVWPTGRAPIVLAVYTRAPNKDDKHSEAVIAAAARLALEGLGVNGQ
T5 sequence (P62593 24-286 limits assumed): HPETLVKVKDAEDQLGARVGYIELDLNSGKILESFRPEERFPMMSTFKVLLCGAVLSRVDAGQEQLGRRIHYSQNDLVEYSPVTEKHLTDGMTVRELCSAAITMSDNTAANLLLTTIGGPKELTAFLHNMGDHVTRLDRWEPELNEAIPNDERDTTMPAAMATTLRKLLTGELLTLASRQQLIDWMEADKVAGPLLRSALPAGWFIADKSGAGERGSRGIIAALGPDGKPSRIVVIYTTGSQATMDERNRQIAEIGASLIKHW
T6 sequence (Q6XEC0 23-265 limits assumed): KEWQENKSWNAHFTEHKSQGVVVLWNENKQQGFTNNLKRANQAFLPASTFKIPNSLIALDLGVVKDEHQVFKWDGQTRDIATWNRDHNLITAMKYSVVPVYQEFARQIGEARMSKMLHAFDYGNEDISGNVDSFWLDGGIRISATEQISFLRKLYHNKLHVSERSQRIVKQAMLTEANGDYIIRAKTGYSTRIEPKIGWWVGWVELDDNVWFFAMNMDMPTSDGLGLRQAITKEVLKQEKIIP
T1 sequence (Q51574 22-275): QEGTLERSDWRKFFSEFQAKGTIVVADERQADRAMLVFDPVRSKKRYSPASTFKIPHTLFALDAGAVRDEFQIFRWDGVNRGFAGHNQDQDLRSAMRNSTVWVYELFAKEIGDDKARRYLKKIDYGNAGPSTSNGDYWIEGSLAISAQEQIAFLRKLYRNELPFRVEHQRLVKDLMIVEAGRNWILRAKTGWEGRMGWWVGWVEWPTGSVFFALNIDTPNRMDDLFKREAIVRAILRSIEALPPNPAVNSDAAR

With `CNC(=O)CON=C1C[C@@H](C(N)=O)N2C[C@@H]1N(OS(=O)(=O)[O-])C2=O.[Na+]` (mixture of isomers) [Example 2, sodium [(2S,5S)-2-carbamoyl-4-[2-(methylamino)-2-oxo-ethoxy]imino-7-oxo-1,6-diazabicyclo[3.2.1]octan-6-yl] sulfate], the “MIC, combination of CAZ and compounds of the invention at 4 μg/mL” value (shortened to “MIC, combination”) in [1] was 1 µg/mL; in assay [2], 64 µg/mL; in [3] it was at most 0.25 µg/mL; in assay [4] it was 32 µg/mL; in assay [5] it was 16 µg/mL; in assay [6], 64 µg/mL. In addition, the “MIC, combination” value in assay [7] was 0.5 µg/mL; in assay [8], at most 0.25 µg/mL; in [9], 2 µg/mL; in [10] it was 64 µg/mL; in [13] it was 0.5 µg/mL; in assay [16], 0.5 µg/mL. Moreover, the IC50 was found to be 0.84 nM in [11]; 3.2 nM in assay [12]; 3.9 nM in assay [17]; 0.76 nM in [18]; 1.7 nM in assay [19]; 3.5 nM in assay [20]. The half-inhibitory concentration (IC50) was 6.8 nM in assay [21], 0.74 nM in [22] and 6.1 nM in [23]. Moreover, the MIC in [14] and in assay [15] was above 32 µg/mL in each case.

Take `NC[C@@H]1CC(=NOCC(N)=O)[C@@H]2CN1C(=O)N2OS(=O)(=O)O` (mixture of isomers) [Example 5, sodium and 2,2,2-trifluroacetate [(2S,5S)-4-(2-amino-2-oxo-ethoxy)imino-2-(azaniumylmethyl)-7-oxo-1,6-diazabicyclo[3.2.1]octan-6-yl] sulfate]: the “MIC, combination” value in assay [1] is below 0.25 µg/mL; in assay [2], 1 µg/mL; in [3], below 0.25 µg/mL; in assay [4], 2 µg/mL; in assay [5], below 0.25 µg/mL; in [6], at most 0.25 µg/mL. Besides, the “MIC, combination” value in assay [7] was 1 µg/mL; in assay [8] it was at most 0.25 µg/mL; in assay [9], 0.25 µg/mL; in assay [10] it was 0.5 µg/mL; in assay [13], at most 0.25 µg/mL; in assay [16] it was below 0.25 µg/mL. For the same compound, the half-maximal inhibitory concentration (IC50) in [11] turned out to be 8 nM; in assay [12], 11000 nM; in [17] it was 1800 nM; in assay [18] it was 130 nM; in [19], 110 nM; in assay [20], 180 nM. The half-maximal inhibitory concentration (IC50) in assay [21] turned out to be 430 nM; in assay [22], 64 nM; in [23], 370 nM. For the same compound, the values for the minimum inhibitory concentration (MIC) in [14] and in assay [15] were 4 µg/mL and above 32 µg/mL, respectively.

Consider `NC[C@@H]1CC(=O)[C@@H]2CN1C(=O)N2OS(=O)(=O)O` [Example 6, 2,2,2-trifluroacetate and sodium [(2S,5S)-2-(azaniumylmethyl)-4,7-dioxo-1,6-diazabicyclo[3.2.1]octan-6-yl] sulfate], for which the “MIC, combination” value was at most 0.25 µg/mL in [1]; 1 µg/mL in assay [2]; at most 0.25 µg/mL in [3]; 2 µg/mL in assay [4]; 0.125 µg/mL in [5]; 2 µg/mL in assay [6]. Moreover, the “MIC, combination” value in assay [7] is 0.5 µg/mL; in [8], at most 0.25 µg/mL; in assay [9], 2 µg/mL; in assay [10], 1 µg/mL; in assay [13] it was 1 µg/mL; in assay [16] it was 1 µg/mL. The IC50 in assay [11] was 68 nM; in [12] it was 6400 nM; in assay [17] it was 5100 nM; in assay [18] it was 510 nM; in assay [19], 280 nM; in assay [20], 840 nM. Also, the values for the half-maximal inhibitory concentration (IC50) in [21], in [22] and in assay [23] were 1600 nM, 340 nM and 1200 nM, respectively. In addition, the minimum inhibitory concentration (MIC) is 8 µg/mL in [14] and above 32 µg/mL in assay [15].

A word on the IC50: it is the concentration that gives 50% inhibition. Lower therefore signals greater potency. For orientation: MIC means the smallest concentration in the dilution series that meets the test's criterion for growth inhibition.

(Values after patent US10570131B2, “Heterocyclic compounds and their use in preventing or treating bacterial infections” (MUTABILIS, priority 2015, dated 2020).)
